Measurements: patent publication US20250313563A1, “GLYCOGEN SYNTHASE KINASE 3 INHIBITORS AND USES THEREOF” (The Broad Institute, Inc., priority 2022, published 2025)
Read-outs that look alike come from different tables or passages of the source.

What was measured:
[1] = molecular target: GSK3α (GST-full length GSK3α) (Homo sapiens (Human), UniProt P49840); experiment: GSK3α TR-FRET kinase assay; assay type: biochemical
How it was run: (§1)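 Compound preincubated 30 min, then 1 nM GST-full-length GSK3α or GSK3b run 100 min at ambient temperature with 200 nM biotinylated, S645-prephosphorylated glycogen synthase 631-650 peptide in Tris pH 7.5, MgCl2, DTT, BSA, 1% DMSO. ATP 4 μM (α) or 2 μM (β), or 1 mM. EDTA-quenched; Tb-anti-pSer641/streptavidin-d2 TR-FRET 665/615 ratio gave IC50.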

[2] = molecular target: GSK3b (GST-full length GSK3b) (Homo sapiens (Human), UniProt P49841); experiment: GSK3b TR-FRET kinase assay; assay type: biochemical
Sequence of GSK3b (GST-full length GSK3b) (P49841 whole entry): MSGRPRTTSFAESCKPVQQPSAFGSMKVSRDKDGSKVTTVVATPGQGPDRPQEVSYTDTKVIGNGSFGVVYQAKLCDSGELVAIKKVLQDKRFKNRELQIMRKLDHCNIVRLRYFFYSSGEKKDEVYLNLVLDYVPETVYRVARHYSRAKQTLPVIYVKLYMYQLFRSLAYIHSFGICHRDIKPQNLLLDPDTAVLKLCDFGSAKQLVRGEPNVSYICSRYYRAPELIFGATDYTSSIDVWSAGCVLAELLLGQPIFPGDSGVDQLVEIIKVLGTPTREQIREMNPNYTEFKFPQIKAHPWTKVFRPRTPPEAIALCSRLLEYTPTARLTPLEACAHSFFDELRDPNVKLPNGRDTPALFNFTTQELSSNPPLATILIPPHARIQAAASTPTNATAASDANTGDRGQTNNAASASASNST
How it was run: as §1

[3] = 1 nM GSK3α, 4 μM ATP, 30 minute preincubation, Table 16, read-out: GSK3-A TR-FRET BIOCHEMICAL (TR-FRET), IC50
[4] = 1 nM GSK3b, 2 μM ATP, 30 minute preincubation, Table 16, read-out: GSK3-B TR-FRET BIOCHEMICAL (TR-FRET), IC50
[5] = 1 nM GSK3α, 4 μM ATP, 30 minute preincubation, read-out: GSK3-A TR-FRET BIOCHEMICAL (TR-FRET), IC50
[6] = 1 nM GSK3b, 2 μM ATP, 30 minute preincubation, read-out: GSK3-B TR-FRET BIOCHEMICAL (TR-FRET), IC50
[7] = read-out: GSK3-B (TR-FRET 1 mM ATP), GMean, IC50, 1 mM ATP, geometric mean
[8] = GSK3-A (TR-FRET 1 mM ATP), GMean, IC50, 1 mM ATP, geometric mean
[9] = GSK3-B (TR-FRET 1 mM ATP), GMean, IC50, 1 mM ATP, geometric mean
[10] = 1 nM GSK3α, 4 μM ATP, 30 minute preincubation, Table 16, read-out: GSK3-A TR-FRET BIOCHEMICAL (TR-FRET)
[11] = 1 nM GSK3b, 2 μM ATP, 30 minute preincubation, Table 16, read-out: GSK3-B TR-FRET BIOCHEMICAL (TR-FRET)
[12] = read-out: GSK3-A (TR-FRET 1 mM ATP), GMean, IC50, 1 mM ATP, geometric mean

Sequence of GSK3α (GST-full length GSK3α) (P49840 whole entry): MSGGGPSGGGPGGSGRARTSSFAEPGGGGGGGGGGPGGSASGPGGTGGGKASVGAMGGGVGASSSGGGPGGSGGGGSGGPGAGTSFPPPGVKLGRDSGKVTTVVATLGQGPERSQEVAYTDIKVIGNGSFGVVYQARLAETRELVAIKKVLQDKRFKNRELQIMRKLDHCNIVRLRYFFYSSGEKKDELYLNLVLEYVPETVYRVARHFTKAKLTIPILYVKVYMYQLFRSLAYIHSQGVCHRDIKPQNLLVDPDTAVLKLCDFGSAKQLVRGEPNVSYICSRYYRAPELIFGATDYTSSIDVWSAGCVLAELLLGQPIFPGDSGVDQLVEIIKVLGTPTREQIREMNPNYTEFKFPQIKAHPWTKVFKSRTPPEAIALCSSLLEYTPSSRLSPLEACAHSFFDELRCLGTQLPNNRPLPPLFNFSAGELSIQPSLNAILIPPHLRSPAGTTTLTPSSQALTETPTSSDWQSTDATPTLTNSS

SMILES | IC50 [1, 3] [nM] | IC50 [2, 4] [nM] | further results
CCC1(c2cccc(N3CC(C)(C)C3C(C)C)c2)C2=C(CC(C)(C)CC2=O)Nc2n[nH]cc21 (stereo not shown) [Compound 902969] | 100 to 1000 | 1000 to 5000 | –
CCC1(c2cccc(N(C)c3ccncn3)c2)C2=C(CC(C)(C)CC2=O)Nc2n[nH]cc21 (stereo not shown) [Compound 902970] | ≤ 100 | 100 to 1000 | –
CCC1(c2cccc(N(C)c3cnccn3)c2)C2=C(CC(C)(C)CC2=O)Nc2n[nH]cc21 (stereo not shown) [Compound 902971] | ≤ 100 | ≤ 100 | –
CC1(C)CC(=O)C2=C(C1)Nc1n[nH]cc1[C@@]21CCOC2(CCCC2)C1 [Compound 907326] | – | – | IC50 [1, 5]: 100 to 1000 nM; IC50 [2, 6]: 1000 to 5000 nM
CC1(C)CC(=O)C2=C(C1)Nc1n[nH]cc1[C@]21CCOC2(CCCC2)C1 [Compound 907327] | – | – | IC50 [1, 5]: 100 to 1000 nM; IC50 [2, 6]: 1000 to 5000 nM
CC[C@@H]1C[C@]2(CCO1)C1=C(CC(C)(C)CC1=O)Nc1n[nH]cc12 [Compound 907328] | 100 to 1000 | 1000 to 5000 | –
CC[C@H]1C[C@@]2(CCO1)C1=C(CC(C)(C)CC1=O)Nc1n[nH]cc12 [Compound 907329] | 100 to 1000 | 1000 to 5000 | –
CCC1(c2cccc(N(C)C(=O)CN3CCCC3)c2)C2=C(CC(C)(C)CC2=O)Nc2n[nH]cc21 (stereo not shown) [Compound 909202] | 100 to 1000 | 1000 to 5000 | –
CCC1(c2cc(N3CCOCC3)ccc2F)C2=C(CC(C)(C)CC2=O)Nc2n[nH]cc21 (stereo not shown) [Compound 909203] | 100 to 1000 | 1000 to 5000 | –
CCC1(c2cccc(S(=O)(=O)C3CC3)c2)C2=C(CC(C)(C)CC2=O)Nc2n[nH]cc21 (stereo not shown) [Compound 909204] | ≤ 100 | ≤ 100 | IC50 [2, 7]: 100 to 1000 nM
CCCC(C(C)=O)c1cccc(C2(CC)C3=C(CC(C)(C)CC3=O)Nc3n[nH]cc32)c1 (stereo not shown) [Compound 909205] | ≤ 100 | ≤ 100 | –
CC1(C)CC(=O)C2=C(C1)Nc1n[nH]cc1C21CCN(S(=O)(=O)C2CCCC2)CC1 [Compound 909206] | ≤ 100 | ≤ 100 | IC50 [1, 8]: ≤ 100 nM; IC50 [2, 9]: 100 to 1000 nM
CC1(C)CC(=O)C2=C(C1)Nc1n[nH]cc1C21CCN(S(=O)(=O)CC2CC2)CC1 [Compound 909207] | – | – | IC50 [1, 5]: ≤ 100 nM; IC50 [1, 8]: ≤ 100 nM; IC50 [2, 6]: ≤ 100 nM; IC50 [2, 9]: 100 to 1000 nM
O=C1CC2(CCC2)CC2=C1C1(CCOCC1)c1c[nH]nc1N2 [Compound 909208] | – | – | IC50 [1, 10]: ≤ 100 nM; IC50 [2, 11]: 100 to 1000 nM
CC1(C)CC(=O)C2=C(C1)Nc1n[nH]cc1C21CN(c2ccncn2)C1 [Compound 909209] | 1000 to 5000 | 1000 to 5000 | –
CC1(C)CC(=O)C2=C(C1)Nc1n[nH]cc1[C@]21C[C@H](OCc2ccccc2)C1 [Compound 909210] | – | – | IC50 [1, 10]: 100 to 1000 nM; IC50 [2, 11]: 100 to 1000 nM
CC1(C)CC(=O)C2=C(C1)Nc1n[nH]cc1[C@]21C[C@@H](OCc2ccccc2)C1 [Compound 909211] | – | – | IC50 [1, 10]: ≤ 100 nM; IC50 [2, 11]: 100 to 1000 nM
CC[C@]1(c2cc(-c3ccnc(C)c3)ccc2F)C2=C(CC(C)(C)CC2=O)Nc2n[nH]cc21 [Compound 909213] | > 5000 | > 5000 | –
CCN(C(C)=O)c1cccc([C@]2(CC)C3=C(CC(C)(C)CC3=O)Nc3n[nH]cc32)c1 [Compound 909214] | ≤ 100 | ≤ 100 | –
CCN(C(C)=O)c1cccc(C2(CC)C3=C(CC(C)(C)CC3=O)Nc3n[nH]cc32)c1 (stereo not shown) [Compound 909215] | 100 to 1000 | 1000 to 5000 | –
CC[C@@]1(c2ccccc2)C2=C(Nc3n[nH]cc31)[C@@H](C)C[C@@H](C)C2=O [Compound 909216] | 100 to 1000 | 100 to 1000 | –
CC[C@]1(c2ccccc2)C2=C(Nc3n[nH]cc31)[C@@H](C)C[C@@H](C)C2=O [Compound 909217] | 100 to 1000 | 1000 to 5000 | –

SMILES | IC50 [1, 3] [nM] | IC50 [2, 4] [nM] | further results
CC[C@]1(c2ccccc2)C2=C(Nc3n[nH]cc31)[C@H](C)C[C@H](C)C2=O [Compound 909218] | > 5000 | > 5000 | –
CC[C@@]1(c2ccccc2)C2=C(Nc3n[nH]cc31)[C@H](C)C[C@H](C)C2=O [Compound 909219] | > 5000 | > 5000 | –
CC[C@@]1(c2cc(-c3cnn(C)c3)ccc2F)C2=C(CC(C)(C)CC2=O)Nc2n[nH]cc21 [Compound 909220] | ≤ 100 | 100 to 1000 | –
CC[C@]1(c2cc(-c3cnn(C)c3)ccc2F)C2=C(CC(C)(C)CC2=O)Nc2n[nH]cc21 [Compound 909223] | > 5000 | > 5000 | –
CC1(C)CC(=O)C2=C(C1)Nc1n[nH]cc1C21COC2(CN(C(=O)OC(C)(C)C)C2)C1 (stereo not shown) [Compound 911083] | – | – | IC50 [1, 5]: 100 to 1000 nM; IC50 [2, 6]: 1000 to 5000 nM
CCC1(c2cccc(C(F)(F)F)c2)C2=C(CC(C)NC2=O)Nc2n[nH]cc21 (stereo not shown) [Compound 911956] | – | – | IC50 [1, 5]: ≤ 100 nM; IC50 [2, 6]: 100 to 1000 nM
CC1OCCC12C1=C(CC(C)(C)CC1=O)Nc1n[nH]cc12 (stereo not shown) [Compound 911958] | > 5000 | > 5000 | –
CC[C@H]1CCN1c1cccc([C@@]2(CC)C3=C(CC(C)(C)CC3=O)Nc3n[nH]cc32)c1 [Compound 911972] | 1000 to 5000 | > 5000 | –
CC1(C)CC(=O)C2=C(C1)Nc1n[nH]cc1C21COC2(CCC2)C1 (stereo not shown) [Compound 911973] | – | – | IC50 [1, 5]: 100 to 1000 nM; IC50 [2, 6]: 100 to 1000 nM
CCC1(c2cccc(N(C)c3cccnn3)c2)C2=C(CC(C)(C)CC2=O)Nc2n[nH]cc21 (stereo not shown) [Compound 911975] | ≤ 100 | ≤ 100 | IC50 [1, 12]: 100 to 1000 nM; IC50 [2, 7]: 1000 to 5000 nM
CCC1(c2cccc(N(C)c3cccnn3)c2)C2=C(CC(C)(C)CC2=O)Nc2n[nH]cc21 (stereo not shown) [Compound 911976] | 100 to 1000 | > 5000 | –
CCC1(c2cccc(-c3ccnc(OC)c3)c2)C2=C(CC(C)(C)CC2=O)Nc2n[nH]cc21 (stereo not shown) [Compound 911989] | 1000 to 5000 | > 5000 | –
CC[C@@]1(c2cccc(-c3c(C)nn(C)c3C)c2)C2=C(CC(C)(C)CC2=O)Nc2n[nH]cc21 [Compound 911990] | ≤ 100 | ≤ 100 | IC50 [1, 12]: ≤ 100 nM; IC50 [2, 7]: 100 to 1000 nM
CCC1(c2cccc(-c3c(C)nn(C)c3C)c2)C2=C(CC(C)(C)CC2=O)Nc2n[nH]cc21 (stereo not shown) [Compound 911991] | 100 to 1000 | > 5000 | –
CCC1(c2cccc(-c3ccnn3C)c2)C2=C(CC(C)(C)CC2=O)Nc2n[nH]cc21 (stereo not shown) [Compound 911992] | ≤ 100 | ≤ 100 | IC50 [1, 12]: ≤ 100 nM; IC50 [2, 7]: 100 to 1000 nM
CCC1(c2cccc(N3CCc4ccncc43)c2)C2=C(CC(C)(C)CC2=O)Nc2n[nH]cc21 (stereo not shown) [Compound 912004] | 1000 to 5000 | > 5000 | –
CC[C@]1(c2cccc(C(F)(F)F)c2)C2=C(CCN(Cc3ccccc3)C2=O)Nc2n[nH]cc21 [Compound 912006] | – | – | IC50 [1, 5]: > 5000 nM; IC50 [2, 6]: > 5000 nM
CCC1(c2cccc(N(CCc3ccccc3)C(C)=O)c2)C2=C(CC(C)(C)CC2=O)Nc2n[nH]cc21 (stereo not shown) [Compound 912064] | ≤ 100 | ≤ 100 | –
CCC1(c2cccc(N(C)C(=O)CCc3ccccc3)c2)C2=C(CC(C)(C)CC2=O)Nc2n[nH]cc21 (stereo not shown) [Compound 912066] | ≤ 100 | 100 to 1000 | –
CCC1(c2cccc(N(C)C(=O)c3cnn(C)c3)c2)C2=C(CC(C)(C)CC2=O)Nc2n[nH]cc21 (stereo not shown) [Compound 912068] | ≤ 100 | 100 to 1000 | –
CCC1(c2cccc(N(C(C)=O)C3CCCC3)c2)C2=C(CC(C)(C)CC2=O)Nc2n[nH]cc21 (stereo not shown) [Compound 912069] | ≤ 100 | ≤ 100 | –
